Experimental findings from US7442501B2, “SQV nucleic acids and polypeptides” (Massachusetts Institute of Technology, priority 2002, dated 2008) are described below.

Experiment [1] has as its system chondroitin synthase. The experiment is described as follows: GalNAcT (N-acetylgalactosamyl transferase) assay of chondroitin synthase activity in worm protein extracts. The class given is biochemical. As to conditions: extract genotype sqv-5/sqv-5 (sqv-5(n3611)). The method, then:
(§1) sqv-5(n3611), sqv-5(n3611)/hT2, and wild-type (N2) animals were used to prepare worm protein extracts. These extracts were tested for chondroitin synthase activity using standard methods, for example, in DeAngelis et al., (J. Biol. Chem. 27:24124-24129, 2000).
(§2) A desulfated chondroitin acceptor was used for the GalNAcT (N-acetylgalactosamyl transferase) assay. Desulfated and β-glucuronidase-treated chondroitin acceptor was used for the GlcAT (glucuronyl transferase) assay.
(§3) The enzymatic activity of SQV-5 was assayed as follows. SQV-5(n3611), sqv-5(n3611)/hT2, and wild-type N2 hermaphrodites were picked as L4 larvae by visual examination of the vulva using a dissecting microscope. The worms staged were allowed to grow for an additional twenty-three to twenty-seven hours at 22° C., re-examined, then transferred to 1.7-ml plastic tubes containing sterile water. The staged worms were washed once with water and twice with 50 mM Tris, pH 7.5, then frozen in a 50 μl volume using liquid nitrogen, and stored at −70° C.
(§4) Worm extracts were assayed for GIcAT glucoronosyltransferase activity by combining 1.3×10^5 cpm UDP-^3H-glucuronic acid donor (NEN), 6 μg β-glucuronidase-treated chondroitin acceptor, and 2.7 μg worm extract in a 25 μl reaction volume containing 0.05% Triton X-100, 10 mM MnCl2, and 100 μM ATP, pH 6.5. GalNAcT activity was detected by combining 1.3 to 3×10^5 cpm UDP-^3H-GalNAc donor (NEN), 12 μg chondroitin acceptor, and 6.7 μg worm extract in a 25 μl reaction volume containing 0.05% Triton X-100 and 10 mM MnCl2, pH 6.5. […] Pelleted material was resuspended in water and counted by liquid scintillation.
(§5) The chondroitin acceptor used was prepared as follows. […] Uronic acid concentration of both preparations was determined by the Carbazole method (Bitter, et al., Anal. Biochem. 4:330-334, 1962).

Experiment [2] deals with T1, chondroitin synthase (Caenorhabditis elegans, UniProt Q7Z1Z1).
T1 construct: wild-type (N2) animals were used to prepare worm protein extracts; from tissue; host or cells: whole C. elegans hermaphrodites (young adults), sonicated protein extract
T1 sequence (Q7Z1Z1 1-736): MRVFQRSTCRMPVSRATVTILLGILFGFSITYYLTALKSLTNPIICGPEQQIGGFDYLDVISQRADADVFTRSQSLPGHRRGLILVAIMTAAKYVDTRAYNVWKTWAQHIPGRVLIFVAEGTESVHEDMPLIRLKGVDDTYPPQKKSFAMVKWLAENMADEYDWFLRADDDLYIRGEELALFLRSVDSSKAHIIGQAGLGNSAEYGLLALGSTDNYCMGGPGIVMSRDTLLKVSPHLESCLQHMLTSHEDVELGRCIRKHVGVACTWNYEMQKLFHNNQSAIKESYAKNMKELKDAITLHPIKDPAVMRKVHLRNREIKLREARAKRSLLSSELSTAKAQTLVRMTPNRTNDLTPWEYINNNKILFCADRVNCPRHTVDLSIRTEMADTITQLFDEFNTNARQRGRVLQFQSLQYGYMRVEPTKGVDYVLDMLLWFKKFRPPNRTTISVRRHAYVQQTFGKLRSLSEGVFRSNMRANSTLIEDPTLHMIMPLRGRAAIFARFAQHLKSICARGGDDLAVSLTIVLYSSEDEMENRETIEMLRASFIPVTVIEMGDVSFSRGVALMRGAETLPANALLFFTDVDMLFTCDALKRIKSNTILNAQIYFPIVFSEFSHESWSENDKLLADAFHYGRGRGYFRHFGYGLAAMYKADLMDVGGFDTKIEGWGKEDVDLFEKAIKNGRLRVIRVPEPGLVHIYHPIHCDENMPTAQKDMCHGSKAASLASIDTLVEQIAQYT
The description is as above. The class given is biochemical. The method, then: as §1, §2, §3, §4, §5

For `CC(=O)N[C@H]1[C@@H](OP(=O)(O)OP(=O)(O)OC[C@H]2O[C@@H](n3ccc(=O)[nH]c3=O)[C@H](O)[C@@H]2O)O[C@H](CO)[C@H](O)[C@@H]1O` [UDP-N-acetylgalactosamine], the CPM was under 0 CPM with chondroitin synthase [1], 171 CPM on chondroitin synthase [2] (extract genotype +/+ (wild-type)) and 134 CPM on chondroitin synthase [2] (extract genotype +/sqv-5 (sqv-5(n3611)/hT2)).
